The values that follow come from patent US8575188B2 (priority 2009, dated 2013).

pIC50: −log10 of the molar value. Where two headings read alike, the source gives them in different places.

The test system of data set [1] is mouse melanoma cell line B-16-F10. Put plainly: Antiproliferation assay, 72 hrs under air, Alamar Blue. It counts as cell-based. The conditions noted are these: B16-F10. For orientation: Alamar Blue is a resazurin reagent that responds to reducing activity.
Another data set has as its system pcDNA. The data set can be described thus: Efflux pump drug resistance, antiproliferation assay, parent line. The format is cell-based. The conditions noted are these: air. How it is done: (§1) The compounds were screened for cytotoxicity using human non small cell lung cancer cell line H460. […]
(§2) Cellular drug resistance was determined using the antiproliferation assay described above.

The subject of data set [2] is H69 small cell lung cancer line. The data set is described as above. The format is cell-based. The conditions noted are these: air. As to the method: as §1, §2
The test system of the next data set is human colon cancer HT-29. The data set can be described thus: Xenograft model, subcutaneous, tumor growth inhibition and body weight loss. The procedure, abridged:
(§3)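 Cells implanted subcutaneously in the flank; at ~150 mm^3 tumors, mice randomized to groups of 10, with a vehicle-only arm. TGI=(1−T/C)%, T/C=(Tn−Ti)/(Cn−Ci), Day n being the last measurement before any vehicle animal was euthanized; euthanasia above 2000 mm^3.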

The nature of data set [3]: In vivo pharmacokinetics, oral gavage. The conditions noted are these: CD, mouse, in vivo, po, 50 mg/kg.
Protocol: The data normalized to a 50 mg/kg dose are shown below (compounds were dosed at either 25 or 50 mg/kg).
Data set [4] deals with MRP1 over expressing H69AR line. Put plainly: Efflux pump drug resistance, antiproliferation assay, MRP1 over expressing line. The settings on record: Homo sapiens, air. It counts as cell-based. As to the method:
as §1, §2

The test system of data set [5] is Messa ovarian carcinoma cell line. The data set can be described thus: Efflux pump drug resistance, antiproliferation assay, parent line. The format is cell-based. The conditions noted are these: air. As to the method: […] Cells were treated with test compounds at various concentrations under air for 72 hrs, and then cell viability and proliferation were assessed by Alamar Blue staining.
as §2

The test system of data set [6] is human non small cell lung cancer cell line H460. Put plainly: Antiproliferation (cytotoxicity) assay, 72 hrs under air, Alamar Blue. The format is cell-based. The conditions noted are these: read-out: IC50.
The nature of data set [7]: Brain penetration, AUC in brain versus AUC plasma. The settings on record: mouse. As to the method:
Certain compounds of the invention were assessed for brain penetration by comparing the AUC for plasma exposure versus the AUC in brain.

Data set [8] concerns DX5, which over expresses the MDR 1 efflux pump. The data set can be described thus: Efflux pump drug resistance, antiproliferation assay, MDR 1 over expressing line. The format is cell-based. The conditions noted are these: MDR1, 120 h, air, 5 days; read-out: Air 5d DX5 prol. IC50. As to the method: as §1, §2
Data set [9] has as its system human prostate cancer cell line PC-3. Put plainly: Antiproliferation assay, 72 hrs under air, Alamar Blue. The format is cell-based. The settings on record: read-out: PC3 IC50.
A further data set relates to H46O cells. The data set can be described thus: Selective hypoxic activation of 14-nitro prodrugs in cell culture. The format is cell-based, human. The settings on record: TH1431 at 1 micromolar, 24 hr. How it is done: H46O cells were grown to a confluent monolayer and then the 14-nitro TH1332 prodrug was added to the media at 5 micromolar concentration. Incubations were done for 24 hour either under air or nitrogen (hypoxia), media and cells were recovered, sonicated and soluble extracts were isolated by acetonitrile precipitation of proteins. The level of amino TH1338 active cytotoxin were quantitated by liquid chromotagraphy mass spectra analysis. The equivalent of 70 nanomolar TH1338 was produced under hypoxia with undetectable levels being produced under air (less than 5 nanomolar).
The analogous experiment was preformed using 1 micromolar concentration of the 14-nitro derivative TH1431. After 24 hr, 180 nanomolar of the 14 amino TH1499 was produced under nitrogen with undetectable levels produced under air (less than 5 nanomolar).

For data set [10], the system named is BCRP, which over expressed the breast cancer resistance protein. Put plainly: Efflux pump drug resistance, antiproliferation assay, BCRP over expressing line. How it is done: as §1, §2
The subject of data set [11] is human colon cancer cell line HT-29. Put plainly: Antiproliferation assay, 72 hrs under air, Alamar Blue. The format is cell-based.
The test system of data set [12] is human melanoma cell line A375. The data set is described as above. It counts as cell-based.
The subject of data set [13] is human non small cell lung cancer H-460. The data set can be described thus: Xenograft model, subcutaneous, tumor growth inhibition and body weight loss. The settings on record: H460, PO, QD × 5/wk, 2 weeks, 2 mg/Kg. Summed up:
as §3

In data set [14] the test system is human prostate cancer PC-3. Described as above. The settings on record: PC3, PO, QD × 5/wk, 2 weeks, 2 mg/Kg. The procedure, abridged:
as §3

Data set [15] relates to human prostate cancer cell line DU145. Put plainly: Antiproliferation assay, 72 hrs under air, Alamar Blue. The format is cell-based.
In data set [16] the test system is human melanoma cell line SKMEL-28. The data set is described as above. The format is cell-based.
Data set [17] relates to human prostate cancer cell line LNCap. The data set is described as above. It counts as cell-based.
For data set [18] the following is noted: stated as known for topotecan; cited from earlier work.
Data set [19] has as its system human ovarian cancer cell line IGROV-1. The data set can be described thus: Antiproliferation assay, 72 hrs under air, Alamar Blue. It counts as cell-based.
Data set [20] relates to bone marrow progenitor cells. The data set can be described thus: Bone marrow progenitor cell clonogenic assay (CFU-GM), human. The settings on record: read-out: Human CFU-GM (IC50 nM) THLD. How it is done: (§4) A clonogenic assay was performed using bone marrow progenitor cells derived from the blood of mice and humans.
For data set [21], the system named is bone marrow progenitor cells. The data set can be described thus: Bone marrow progenitor cell clonogenic assay (CFU-GM), mouse. The settings on record: read-out: Mouse CFU-GM (IC50 nM) THLD. How it is done: as §4
Data set [22] concerns human melanoma cell line SKMEL2. The data set can be described thus: Antiproliferation assay, 72 hrs under air, Alamar Blue. The settings on record: read-out: SKMEL-2 IC50. It counts as cell-based.
The test system of data set [23] is IGROV1 human ovarian cancer cells. The data set can be described thus: Xenograft model of metastatic ovarian cancer (i.p.), survival. The settings on record: mouse, in vivo, 2 mg/kg.
Protocol: One arm was dosed with only vehicle and the results used for the efficacy calculations. […] A xenograft model of metastatic ovarian cancer was set up by the intraperitoneal (i.p) injection of 3×10^6 IGROV1 human ovarian cancer cells in nude mice. Mice were evaluated twice a week for morbidity and mortality. Kaplan-Meier survival curves were plotted.
For data set [24], the system named is human melanoma cell line MAMLE-3M. The data set can be described thus: Antiproliferation assay, 72 hrs under air, Alamar Blue. The format is cell-based.
[25] abbreviates: HT29, PO, QD × 5/wk, 4 weeks, 2 mg/Kg.

With `CC[C@@]1(O)C(=O)OCc2c1c([N+](=O)[O-])c1n(c2=O)Cc2c-1nc1ccccc1c2/C=N/OC(C)(C)C` [TH1431], the pIC50 (usually the negative decadic logarithm of the IC50, by convention in mol/L) is 6.14 in data set [1]; 6.34 in the data set on pcDNA (72 h, 3 days, read-out: Air 3d pcDNA prol. IC50); 7.17 with pcDNA (120 h, 5 days, read-out: Air 5d pcDNA prol. IC50); 6.05 in the data set on pcDNA (3 days, read-out: Air 3d pcDNA prol. IC50); 5.42 in [2] (72 h, 3 days, read-out: Air 3d H69 prol. IC50); 6.45 in data set [2] (120 h, 5 days, read-out: Air 5d H69 prol. IC50). For the same compound, the negative logarithm of the IC50 (pIC50) in data set [4] (72 h, 3 days, read-out: Air 3d H69ar (MRP1) prol. IC50) is less than 5.00; in data set [4] (120 h, 5 days, read-out: Air 5d H69ar (MRP1) prol. IC50), 6.08; in [5] (Homo sapiens, MES-SA, 72 h, 3 days, read-out: Air 3d MESSA prol. IC50), 5.57; in data set [5] (Homo sapiens, MES-SA, 120 h, 5 days, read-out: Air 5d MESSA prol. IC50), 6.59; in data set [5] (3 days, read-out: Air 3d MESSA prol. IC50), 5.48; in [6] (Homo sapiens, NCI-H460, H460, inhibition of proliferation, 72 hrs under air), 6.10. In addition, the negative-log IC50 (pIC50) was 6.29 in data set [8]; 7.54 in [9] (Homo sapiens); 6.54 in data set [11] (Homo sapiens, HT-29, read-out: HT29 IC50). For the same compound, the “TGI (%)” value with human colon cancer HT-29 (HT29, PO, QD × 5/wk, 2 weeks, 25 mg/Kg) stood at 34.6%. Besides, the “Max. BWL (%)” value in the data set with human colon cancer HT-29 (mouse, in vivo, po, 25 mg/kg) is given as 1.6%. In [3], the AUC – broadly, concentration integrated over time – was 352 ng·h/mL. Moreover, the peak level in data set [3] (Cmax) was 348 ng/mL. The Kp (as a rule, tissue or fluid exposure divided by exposure in the circulation) in [7] was 0.12. In addition, in the data set with H46O cells (air, undetectable levels), the “TH1499 produced under air” value is recorded as “less than 5 nanomolar”. The “14 amino TH1499 produced under nitrogen” value in the data set on H46O cells (nitrogen) was determined as 180 nM. Moreover, the IC50 – broadly, the concentration needed to halve the response being measured – in [10] (120 h, read-out: Air 5d BCRP prol. IC50 nM, air, 5 days) turned out to be 78 nM. Also, in data set [10] (ratio of IC50s, BCRP over expressing versus parent line, 5 days), the “5d BCRP/pcDNA” value worked out at 1.1642.

For `CC[C@@]1(O)C(=O)OCc2c1cc1n(c2=O)Cc2cc3c(CN(C)C)c(O)ccc3nc2-1` [Topotecan, reference compound], the negative-log IC50 (pIC50) was 7.89 in data set [12]; 7.52 in [15]; less than 5.00 in data set [16]; 8.05 in data set [17]; 6.80 in data set [19]; 7.35 in data set [6]. For the same compound, the pIC50 in data set [9] is 7.35; in data set [22], 6.85; in [24], 6.00; in data set [11] (read-out: HT29 IC50) it was less than 6.00. Also, the “Max BWL (%)” value in data set [13] is recorded as 8.9%; in data set [14] it was 1.3%; in the data set with human colon cancer HT-29 (setting [25]), 0%. For the same compound, the “TGI (%)” value in data set [13] was 46.1%; in [14], 79%; in the data set on human colon cancer HT-29 (setting [25]), 70.3%. Besides, the “brain levels in mice relative to plasma levels” value in data set [18] was “about 30%”. Also, the IC50 in data set [20] turned out to be 8 nM; in data set [21], 130 nM. Further, in data set [23], the T/C was determined as 186. Further, the “ratio BCRP over expressing line versus the parent cell line” value in [10] (not told) came out at 51.
